# Results from patent publication US20230338322A1, “GLYCERYLTRIACETATE (GTA) FOR USE IN IMPROVING BREATHING” (YISSUM RESEARCH DEVELOPMENT COMPANY OF THE HEBREW …, priority 2020, published 2023).
# What was measured:
# swine flu infection = details: human, in vivo, po
# [1] = Treating a bronchitis patient with GTA capsules; details: softgel GTA 12 ml daily for a total of 5 days
# [2] = Treating Long-COVID (post-corona) patients with GTA capsules; assay type: in vivo, human; details: softgel GTA 12 ml daily oral
# Text: Long COVID is a range of symptoms that can last weeks or months after first being infected with the virus that causes COVID-19 or can appear weeks after infection. 5 Long-Covid subjects who recovered from COVID-19 infection (=became PCR negative) but still have significant breathing problems that compromised their daily physical activities. […] Treatment duration was between 5-10 days, according to recovery rate.
# [3] = Madhavarao 2009, Segel 2011; cited from earlier work
# [4] = aqueous solution; cited from earlier work
# [5] = Treating lung cancer patient with breathing difficulties
# Protocol: The patient started taking pure glyceryl-triacetate (GTA), encapsulated in hard-shell Vegicaps (produced by Capsugel), 12 ml a day, divided among 3 meals. After 3 days the patient increased the dose to 24 ml a day and after additional 3 days they consumed a daily dose of 30 ml GTA for a period of 1 month.
# tumor-model = details: GTA alone versus combination with chemotherapy (TMZ); WO13013061; cited from earlier work
# [6] = tested on: SARS-Cov2 (COVID-19 infection); experiment: Treating SARS-Cov2 infected patients (COVID-19 infection); assay type: in vivo, human; details: all 11 patients, age 60-89, PCR positive with respiratory symptoms; softgel GTA 12 ml daily oral, 5-10 days, no other medication
# Text: Eleven subjects, age 60-89 with various comorbidities, who were positive for COVID-19 infection by the PCR test and already developed respiratory-related symptoms of the disease. […] Treatment duration was between 5-10 days, according to recovery rate.
# [7] = Treating asthmatic patients with GTA capsules
# Protocol: These patients where orally administered softgel capsules filled with GTA at a daily dose of 12 ml, either 4 ml three times a day or 6 ml twice a day, during or immediately after meal. Treatment duration was 7 days.
structure (smiles),measurement,setting,value
"CC(=O)OCC(COC(C)=O)OC(C)=O [GTA, Glyceryltriacetate]",patient's healing compared to non-treated patients,swine flu infection,acceleration of patient's healing
same,patient-reported coughing and breathing,[1],"less to no coughing, improved breathing"
same,time to recovery from breathing problems,[2]; 5 Long-Covid patients,5 to 10 days
same,recovery from breathing problems,"[2]; all 5 Long-Covid patients, no other medication",fully or almost fully recovered
same,therapeutic benefit in Canavan disease clinical trials,[3],failed to show any therapeutic benefit
same,water solubility limit,[4],0.25%
same,tumor mass on CT,[5]; GTA up to 30 ml daily for 1 month,no improvement in tumor mass
same,self-reported breathing,[5]; within 2 days after start of GTA 12 ml a day,breathing is much easier
same,use of inhaled Salbutamol,"[5]; within a week, GTA 12 ml then 24 ml a day",stopped taking Salbutamol
same,walking distance without taking a break,"[5]; within a week, before treatment not more than ~50 m",hundreds of meters
same,improvement in in-vivo tumor-model,tumor-model,not by GTA by itself
same,recovery from the disease,[6],fully recovered
same,duration of the beneficial effect,"[7]; after 7 days of GTA 12 ml daily, then 2nd round required",1-8 weeks
same,patient-reported breathing,"[7]; all 4 chronic asthmatic patients, softgel GTA 12 ml daily oral, 7 days, including giving up inhalation",outstanding improvement
